Measurements reported in article PMC7647111, “Antileishmanial compounds from Connarus suberosus: Metabolomics, isolation and mechanism of action” (PLoS ONE, 2020).
In brackets after ≈: the same amount, converted by molar mass. Several values for one entry are separate records, joined by “and”; a condition that tells them apart may be missing. Equal values may be shown once. Read-outs that look alike come from different tables or passages of the source.

Tests used:
[1] = tested on: L. amazonensis promastigotes; test: Antiproliferation assay: L. amazonensis promastigotes (24 h), resazurin; type: cell-based, Leishmania amazonensis (IFLA/BR/1967/PH8); conditions: Leishmania amazonensis, after 24 h, read-out: IC50 (CI95)
Protocol: (§1) Leishmania amazonensis promastigotes (IFLA/BR/1967/PH8) for the 24 h exposure test were cultivated in RPMI 1640, supplemented with 20% v/v heat inactivated fetal bovine serum (FBS) and incubated at 26°C until near the end of the log growth phase. Leishmania amazonensis (IFLA/BR/1967/PH8) and L. infantum (MCAN/BR/2008/1112) promastigotes used in the 72 h exposure test were cultivated in Warren’s medium (containing brain heart infusion- BHI plus hemin and folic acid), supplemented with 10% FBS, 0.1% of the antibiotics: 100 UI/mL penicillin G and 0.1 mg/mL streptomycin. Leishmania amazonensis (IFLA/BR/1967/PH8) transfected with the red fluorescent protein (RFP) gene was cultured in M199 medium (containing 0.1 mmol/L adenine, 40 mmol/L hepes, 0.0005% hemin and 0.0002% biotin), supplemented with 10% FBS, and 0.1% of the antibiotic. Parasites were maintained at 25°C in a BOD incubator.
Extracts and fractions were tested against L. amazonensis (IFLA/BR/1967/PH8) promastigote cells in a 96-well plate at a concentration of 10^6 cells/well. Each sample was solubilized in DMSO (<1%) since it was not soluble directly in the medium. Extracts were tested at 100 μg/mL and 50 μg/mL. […] Plates were read at 570 nm and 595 nm in a microplate reader (BiochromAsys UVM 340) after cell lysis with sodium dodecyl sulfate (SDS). Viability was calculated based on the equations described by Kulshrestha.

[2] = tested on: L. amazonensis promastigotes; test: Antiproliferation assay: L. amazonensis promastigotes (72 h), MTT; type: cell-based, Leishmania amazonensis (IFLA/BR/1967/PH8); conditions: 72 h exposure; for IC50: Leishmania amazonensis
Protocol: as §1
(§2) Extracts and isolated compounds were tested against L. amazonensis promastigotes (IFLA/BR/1967/PH8 strain - 2x10^5 cells/well) and L. infantum promastigotes (MCAN/BR/2008/1112 strain - 3x10^5 cells/well). The samples were solubilized in DMSO (<1%), serially diluted (100 μg/mL to 1.56 μg/mL) and tested in a 96-well plate to obtain a dose-response curve. Miltefosine and DMSO were used as positive and negative controls, respectively. After 72 h, 10 μL of 3-(4,5-dimethylthiazol-2-yl)-2,5-diphenyl tetrazolium bromide (5 mg/mL—MTT, Sigma-Aldrich) solution was added to each well and the plate returned to the incubator for an additional 4 h. To halt the reaction, 100 μL acidified isopropanol was added to each well. Plates were read at 570 nm in a microplate reader (Multiskan MS, LabSystems Oy, Helsinki, Finland).

[3] = tested on: L. amazonensis amastigotes; test: L. amazonensis amastigotes assay (RFP parasites in peritoneal macrophages); type: cell-based, Leishmania amazonensis (IFLA/BR/1967/PH8); conditions: for activity against L. amazonensis amastigotes (in words) / IC50: 72 h; for IC50: Leishmania amazonensis, Peritoneal macrophage, intracellular
Protocol: Peritoneal macrophages obtained from BALB/c mice were transferred to a 24-well plate (6x10^5 cells/well) in RPMI 1640 medium supplemented with 10% inactivated FBS and 20 mM L-glutamine, pH 7.2. The plate was incubated at 37°C in 5% CO2 for 24 h. After this period, macrophages were infected with L. amazonensis (IFLA/BR/1967/PH8) transfected with RFP in the stationary growth phase using a ratio 1:10 (macrophages/parasites) at 33°C for 4 h. The non-phagocytosed parasites were subsequently removed by extensive PBS wash, and samples added at non-toxic concentrations, in accordance with the cytotoxicity tests (100 μg/mL to 1.56 μg/mL) to determine the IC50 for the intracellular parasite. After 72 h, the supernatant was removed from the wells and 200 μL of deionized water added to each well to lyse the cell membrane. After lysis, the resulting supernatants were transferred to a black 96-well plate. The plate was read in a fluorescence spectrophotometer (FLx800, BioTek Instruments, Inc., Winooski, VT, USA) with 540/600 nm of excitation/emission. Wells containing macrophages infected with L. amazonensis (RFP) […] only were used as negative controls.

[4] = tested on: L. infantum promastigotes; test: Antiproliferation assay: L. infantum promastigotes (72 h), MTT; type: cell-based, Leishmania infantum (MCAN/BR/2008/1112); conditions: 72 h exposure; for IC50: Leishmania infantum, 72 h
Protocol: as §1, §2

[5] = Cytotoxicity assay (MTT); type: cell-based, BALB/c mice; conditions: female, BALB/c, mouse, 72 h exposure
Protocol: Female BALB/c mice pre-inoculated with 3% thioglycollate medium were used to obtain macrophages from the peritoneal cavity. Peritoneal exudate was collected 72 h post-inoculation using cold Hank´s Balanced Salt Solution and the assay performed as previously reported. Briefly, peritoneal macrophages in RPMI 1640 medium were transferred to a 96-well plate (2x10^5 cells/well) and incubated at 37°C in 5% CO2 for 24 h to allow adhesion. Samples were serially diluted (100 μg/mL to 0.78 μg/mL), added to the plate with the cells and incubated under the same conditions for 72 h. MTT (10 μL/well) was subsequently added and the plates re-incubated for a further 2 h. To halt the reaction, 100 μL of acidified isopropanol was added to each well. The plate was then read at 570 nm in a microplate reader (Multiskan MS, LabSystems Oy, Helsinki, Finland).

[6] = tested on: L. amazonensis promastigotes; test: Mitochondrial membrane potential (MitoTracker); type: cell-based, Leishmania amazonensis; conditions: 24 h; 2 at 33.8 μM, 3 at 11.4 μM; FCCP 5.0 μM for 10 min
Protocol: After 24 h of incubation at 25°C, the parasite concentration was adjusted to 5x10^6 cells/mL and stained with 500 nM MitoTracker (Invitrogen, Eugene, OR, USA) in the dark for 40 min at 37°C. After washing twice with PBS, samples were transferred in triplicate to a black 96-well plate, and fluorescence measured in a spectrofluorometer (FLx800, BioTek Instruments, Inc., Winooski, VT, USA) at 540/600 nm excitation/emission. […] Louis, MO, USA) for 10 min were used to obtain maximal mitochondrial depolarization (positive control).

[7] = tested on: L. amazonensis promastigotes; conditions: cited from earlier work
[8] = tested on: L. amazonensis axenic amastigotes; set-up: method as in PMID 18849135; conditions: cited from earlier work
[9] = tested on: L. amazonensis promastigotes; test: Reactive oxygen species (ROS) detection (H2DCFDA); type: cell-based, Leishmania amazonensis
Protocol: Fluorescence intensity was detected using a fluorimetric microplate reader (FLx800, BioTek Instruments, Inc., Winooski, VT, USA), at 485/528 nm excitation/emission. Promastigotes incubated with miltefosine (44.2 μM) were used as a positive control.

[10] = tested on: L. amazonensis promastigotes; test: Cell membrane integrity (propidium iodide); type: cell-based, Leishmania amazonensis; conditions: 24 h; 2 at 33.8 μM, 3 at 11.4 μM
Protocol: Plates were incubated with propidium iodide (PI) (1.0 μg/mL—Sigma-Aldrich, USA, St. Louis, MO, USA) for 15 min in the dark at RT. Fluorescence was measured using a spectrofluorometer (FLx800, BioTek Instruments, Inc., Winooski, VT, USA) with 540/600 nm excitation/emission. Parasites heated at 65 °C were used as the positive control.

[11] = tested on: L. amazonensis promastigotes; test: Neutral lipid quantification (Nile Red); type: cell-based, Leishmania amazonensis; conditions: 24 h; 2 at 33.8 μM, 3 at 11.4 μM
Protocol: After 24 h of exposure, the parasites (1x10^7 cells/well) were stained with 10 μg/mL Nile Red (Sigma-Aldrich, St. Louis, MO, USA) in the dark for 20 min at 25°C. Fluorescence intensity was analysed in a spectrofluorometer (BioTek Instruments, Inc., Winooski, VT, USA) using 485/528 nm excitation/emission.

[12] = tested on: L. infantum amastigotes; test: L. infantum amastigotes assay (Giemsa, infection index); type: cell-based, Leishmania infantum; conditions: Leishmania infantum; intracellular, 72 h
Protocol: Peritoneal macrophages (6 x 10^5 cells) were plated on round glass coverslips within 24-well plates in RPMI 1640 medium supplemented with FBS and 20 mM L-glutamine, pH 7.2, and incubated for 24 h at 37°C in 5% CO2. Stationary-phase promastigotes (6 x 10^6 cells, at a ratio of 10 parasites per macrophage) were then added to the wells, and cultures incubated for 24 h at 37°C in 5% CO2. Non-internalized parasites were removed by extensive PBS solution washing and infected macrophages subsequently treated with nontoxic concentrations of: compound 3 (6.25 μg/mL to 0.18 μg/mL) or miltefosine (10.0 μg/mL to 0.6 μg/mL, positive control) for 72 h at 37°C in 5% CO2. After compound exposure, cells were fixed with absolute ethanol and stained with Giemsa. A total of 200 macrophages were counted under a light microscope. The infection index was determined by the […] percentage of infected macrophages multiplied by the mean number of amastigotes per macrophage out of 200 macrophages.

SMILES | IC50 [2] | activity against L. amazonensis amastigotes (in words) [3] | IC50 [3] | IC50 [4] | CC50 at 72 h ([5]; murine peritoneal macrophages) | further results
C[C@@H]1[C@H](O)[C@@H](C)/C=C/C=C/C=C/C=C/C=C/C=C/C=C/[C@H](O[C@@H]2O[C@H](C)[C@@H](O)[C@H](N)[C@@H]2O)C[C@@H]2O[C@](O)(C[C@@H](O)C[C@@H](O)[C@H](O)CC[C@@H](O)C[C@@H](O)CC(=O)O[C@H]1C)C[C@H](O)[C@H]2C(=O)O [Amphotericin B, reference compound] |  |  |  |  |  | IC50 [1]: < 7.8 µg/mL
CCCCCCCCCCCCCCCC1=C(O)C(=O)C=C(O)C1=O [Compound 6, suberonone] | 51.9 µg/mL and 149 µM | inactive | > 3.2 µg/mL and > 8.9 µM | 37.2 µg/mL and 106 µM | 4.2 µg/mL and 11.7 µM | activity against L. amazonensis promastigotes (in words) [2]: not considered active; activity against L. infantum promastigotes (in words) [4]: not considered active
N#CC(C#N)=NNc1ccc(OC(F)(F)F)cc1 [FCCP, carbonyl cyanide 4-(trifluoro-methoxyl)phenylhydrazone, reference compound] |  |  |  |  |  | reduction in mitochondrial membrane potential (ΔΨm) [6]: 51.6%
COc1ccc2c(c1)OC1c3ccc4c(c3OCC21)C=CC(C)(C)O4 (centres unmarked) [Compound 1, hemileiocarpin] |  |  | 10.6 µg/mL and 31.6 µM | 20.8 µg/mL and 61.9 µM | > 100 µg/mL and > 297 µM | 
CCCCCCCCCCCCCC1=C(O)C(=O)C=C(O)C1=O [Compound 4, rapanone] | 50.4 µg/mL and 169 µM | inactive | > 3.2 µg/mL and > 10.6 µM | 7.2 µg/mL and 24.5 µM | 2.9 µg/mL and 9.8 µM | activity against L. amazonensis promastigotes (in words) [2]: inactivity; Promastigotes IC50 L. infantum [4]: 7.17 ± 0.3 µg/mL
CCCCCCCCCCCC1=C(O)C(=O)C=C(O)C1=O [Compound 5, embelin] | 12.5 µg/mL and 38.9 µM | inactive | > 3.2 µg/mL and > 9.7 µM | 10.7 µg/mL and 33.2 µM |  | CC50 at 72 h ([5]; read-out: Cytotoxicity CC50 Murine macrophages): 0.9 µg/mL and 2.6 µM
CCC(C)C(=O)c1c(O)c(CC=C(C)C)c(O)c2c(-c3ccccc3)cc(=O)oc12 (centres unmarked) [mammea A/BB] |  |  |  |  |  | IC50 promastigotes [7]: 3 µg/mL (≈ 7.38 µM); IC50 axenic amastigotes [8]: 0.88 µg/mL (≈ 2.16 µM)
CC1(C)C=Cc2c(ccc3c2OCC2c4cc5c(cc4OC32)OCO5)O1 (centres unmarked) [Compound 2, leiocarpin] | 11.4 µg/mL and 33.8 µM |  | 7.1 µg/mL and 20.4 µM | 15.5 µg/mL and 44.3 µM | 39 µg/mL and 116 µM | SI (Selectivity Index) ([3]; CC50 macrophages / IC50 L. amazonensis amastigotes): 5.7; reduction in mitochondrial membrane potential (ΔΨm) [6]: 37.6%; ROS level ([9]; 24 h, 2 at 33.8 μM, 3 at 11.4 μM): no alteration in the ROS level; plasma membrane integrity (PI-positive parasites) [10]: significant increase in the percentage of PI-positive parasites; increase in neutral lipid levels in relation to the untreated control [11]: 86.9%
CCCCCCCCCCCCCCCCOP(=O)([O-])OCC[N+](C)(C)C [Miltefosine, reference compound] | 9 µg/mL and 22.1 µM |  | 5.2 µg/mL and 12.7 µM | 2.6 µg/mL and 6.5 µM |  | SI (Selectivity Index) [3]: 10.4; increase in ROS production ([9]; miltefosine 44.2 μM, positive control): 162.3%; IC50 [12]: 3.7 µM
